Here are results for one molecule from PMC4109680, “Identification and Preclinical Pharmacology of the γ-Secretase Modulator BMS-869780” (International Journal of Alzheimer's Disease, 2014).

Broadly, the AUC(0-t) is the area under the concentration-time curve up to a stated or last time point.

Structures are written as SMILES. Like-named read-outs stand apart in the source and are kept apart here. A value given as a limit tells only on which side of the number the result lay.

In one data set the test system is brain Aβ1-42. Nature of the data set: Rat time course PK/PD, oral dose, indirect response model. In kind it is in vivo. The following applies: for IC50: po. As to the method: (§1) Figure 8 Analysis of the PK/PD relationship for BMS-869780 in rats and mice. Rats were dosed orally with BMS-869780 at 10 mg/kg, and triple transgenic mice were orally dosed at 30 mg/kg and 100 mg/kg. Additional groups of rats and mice were dosed with vehicle alone. Brain and plasma were harvested at 3, 5, 8, 16, and 24 hours after dosing for determination of brain Aβ1-42 and plasma BMS-869780 concentration. Group sizes were 5 rats or 4 mice. Whiskers represent standard error. […] The data were fit to a one-compartment PK model and the predicted plasma BMS-869780 concentrations are shown for mouse (solid lines) and rat (broken line). […] The data were fitted using the indirect pharmacodynamic response model and predicted values are shown (solid lines). (c) Brain Aβ1-42 levels were determined for the rats dosed with BMS-869780 at 10 mg/kg (▼) or vehicle alone (●). The data were fitted using the indirect pharmacodynamic response model and predicted values are shown (dashed line). (d) Brain Aβ1-40 levels determined in the same rats as illustrated in (c).
(§2) All experimental procedures with animals followed National Institutes of Health guidelines and were authorized by and in compliance with policies of the Bristol-Myers Squibb Animal Use and Care Committee. Mice and rats were housed with a 6:00 AM to 6:00 PM light/dark cycle and allowed free access to food and water. For 3xTg mice, BMS-869780 was dosed in three-month-old females by oral gavage at 6 mL/kg in vehicle consisting of 84% polyethylene glycol average molecular weight of 400 (PEG-400), 15% EtOH, and 1% Tween-80 (w/w/w). The compound was dissolved in EtOH and then diluted with PEG-400 and Tween, after which the vial was sealed, vortexed, and sonicated at 56°C for 1 hour. Animals were euthanized by asphyxiation in CO2. Blood was collected by cardiac puncture and placed into ethylene-diaminetetraacetic acid microtainer tubes for the preparation of plasma. The cerebellum was collected for the determination of compound concentration, and the remaining brain was separated into left and right halves before freezing in liquid nitrogen. For the rat time course study, 8- to 12-week-old female Sprague-Dawley rats were obtained from Charles River Laboratories (Wilmington, MA), BMS-869780 was dosed orally at 4 mL/kg, and brain and plasma samples were collected as described for the 3xTg mice. For the four day repeat dose rat study, BMS-869780 was given by oral gavage in vehicle consisting of PEG-400, PEG-200, D-α-tocopheryl polyethylene glycol succinate, Solutol HS 15, in the ratio 80 : 10 : 5 : 5 (w/w/w/w). Methods for the pharmacokinetics studies in rat, dog, and monkey are described below.
(§3) The data generated in the mouse and rat time course experiments were analyzed sequentially by nonlinear regression (WinNonlin Pharsight Corporation, Mountain View, CA). The pharmacokinetic data were best described by a 1-compartment linear model with first-order absorption and elimination. Subsequently, the pharmacodynamic parameters were estimated from the BMS-869780 plasma concentrations and the observed reductions of brain Aβ1-42 or Aβ1-40 by fitting to the equation for inhibition of synthesis. The goodness-of-fit was determined by visual inspection, Akaike Information Criterion, Schwartz Criterion, examination of the residuals and the coefficient of variation of the parameter estimates.

Test in data set [1]: as above
In kind it is in vivo. The following applies: female, Sprague-Dawley, plasma. As to the method: as §1, §2, §3

[2] abbreviates: Rat 10 mg/kg PO solution (observed 0–24 hours).

For `COc1cc(Nc2nc3n(n2)CCCC[C@H]3c2ccc(F)cc2)ccc1-n1cnc(Cl)c1` [BMS-869780], in the data set with brain Aβ1-42 (setting [2]), the “Brain Aβ ABEC 24 hr Aβ1-40” value is given as 46.1% and the “Brain Aβ ABEC 24 hr Aβ1-42” value was determined as 47.0%. Moreover, in the data set on brain Aβ1-42 (Rattus norvegicus, read-out: in vivo plasma IC50 for brain Aβ1-42), the IC50 worked out at 1.9 µM. Also, in the data set with brain Aβ1-42 (rat, PD model, read-out: IC50 (plasma concentration required for 50% inhibition of Aβ production)), the IC50 stood at 1.89 µM. Besides, the V/F in the data set with brain Aβ1-42 (rat) is 1.94 L/kg. Moreover, the “in vivo IC50 (corrected for protein binding) relative to in vitro IC50 for Aβ1-42” value in the data set on brain Aβ1-42 (rat and 3xTg mouse, M146V allele taken into account for mouse) is reported as at most 2 fold. Also, in the data set on brain Aβ1-42 (rat, 10 mg/kg oral), the “Ka1 (10 mg/kg)” value is 0.19 h⁻¹. Further, in the data set with brain Aβ1-42 (rat, calculated), the “K in” value is reported as 48 %/h. Besides, in the data set with brain Aβ1-42 (rat, rate constant for degradation of Aβ), the “K OUT” value came to 0.48 h⁻¹. Further, in data set [1] (oral, 10 mg/kg, rat, 1-compartment PK model), the k el is 2.78e-05 s⁻¹. Also, in data set [1] (setting [2]), the AUC(0-t) came out at 46.3 µM·h.
